≈ marks a conversion by molar mass, not a printed value.
Key:
S. aureus [1] = assay: Assay of protease production (casein substrate); assay type: cell-based, Staphylococcus aureus; details: sub-MIC
Experimental: (§1) The effect of compounds 5, 7 and 10 on the production of protease was evaluated using casein substrate as described earlier. Briefly, overnight cultures of P. aeruginosa and S. aureus were cultivated in LB broth in the presence or absence of compounds 5, 7 and 10 at ½ MIC for 24 h at 37 °C. The supernatants were collected, mixed (1:1) with 0.05 M casein in phosphate buffer (2%) and NaOH (0.1 M) at pH 7.0, and incubated for 15 min at 37 °C. The reaction was stopped by adding 2 mL of 0.4 M trichloroacetic acid for 30 min at 25 °C. Any precipitates were removed, and the optical densities were detected at 660 nm. The assays were performed in triplicate and the obtained optical densities of tested strains treated with compounds 5, 7 and 10 were expressed as mean ± standard error of percentage change from untreated tested strains control (positive control) and LB (negative control). The protease inhibition percentages were calculated: (O.D control—O.D tested compounds)/O.D control.

P. aeruginosa [2] = assay: Assay of protease production (casein substrate); assay type: cell-based, Pseudomonas aeruginosa; details: sub-MIC
Experimental: as §1

[3] = tested on: Staphylococcus epidermidis ATCC 12228; assay: MIC by agar dilution; assay type: cell-based; details: ATCC12228, 37 °C, 20 h, read-out: Minimum inhibitory concentration (MIC)
Experimental: (§2) The MICs of the synthesized compound were determined by agar dilution method according to the Clinical Laboratory and Standards Institute Guidelines (CLSI, 2015). Briefly, the tested strains were incubated overnight in tryptic soy broth (TSB) (Oxoid, United Kingdom) and then diluted in Muller–Hinton (MH) broth (Oxoid, United Kingdom) to turbidity approximating to the equivalent of 0.5 McFarland standard. The suspensions were further diluted with sterile saline (1:10) and standardized inoculums (approximately 10^4 CFU per spot) were spotted on the surfaces of MH agar (Oxoid, United Kingdom) plates containing different concentrations of tested compounds and a control plate. The MICs were the lowest concentrations that inhibit growth on the plates after incubation at 37 °C for 20 h.

[4] = tested on: Staphylococcus aureus ATCC 6538; assay: MIC by agar dilution; assay type: cell-based; details: ATCC6538, 37 °C, 20 h, read-out: Minimum inhibitory concentration (MIC)
Experimental: as §2

[5] = tested on: Escherichia coli ATCC 10536; assay: MIC by agar dilution; assay type: cell-based; details: ATCC10536, 37 °C, 20 h, read-out: Minimum inhibitory concentration (MIC)
Experimental: as §2

[6] = tested on: Klebsiella pneumoniae ATCC 27736; assay: MIC by agar dilution; assay type: cell-based; details: ATCC27736, 37 °C, 20 h, read-out: Minimum inhibitory concentration (MIC)
Experimental: as §2

[7] = tested on: Salmonella typhimurium ATCC 14028; assay: MIC by agar dilution; assay type: cell-based; details: Salmonella enterica, 37 °C, 20 h, read-out: Minimum inhibitory concentration (MIC)
Experimental: as §2

[8] = tested on: Micrococcus spp. ATCC 10240; assay: MIC by agar dilution; assay type: cell-based; details: ATCC10240, 37 °C, 20 h, read-out: Minimum inhibitory concentration (MIC)
Experimental: as §2

Panc-1 = assay: SRB cellular proliferation assay; assay type: cell-based, human; details: Homo sapiens, Panc-1 cells, mean ± SD (n = 3), read-out: IC50
Experimental: (§3) The pancreatic human cancer cell lines BxPC-3 and Panc-1, the human hepatocellular carcinoma (HepG-2), and the normal immortalized pancreatic cell line HPDE, that were used in this study, were obtained from the American Type Culture Collection (Rockville, USA). Cell lines were cultured and treated with the tested compounds or dimethyl sulfoxide (DMSO) as previously described. Cells were cultivated in DMEM medium (Invitrogen, Carlsbad, CA, USA), supplemented with streptomycin, penicillin and fetal bovine serum (FCS) (Invitrogen, Carlsbad, CA, USA). The sulforhodamine B (SRB) assay was employed to assess the anti-proliferative effects of tested compounds on cancer cells. Cell lines were incubated and regularly treated with DMSO or increasing doses of tested compounds for 48 h. The cells were fixed with 10% trichloroacetic acid and stained with SRB fluorescent dye for 30 min. Then, the bounded SRB dye to cellular proteins was dissolved in 10 mM Tris base after washing excess dye with 1% acetic acid. The absorbance was measured at 510 nm in a reader (Biotek, Winooski, VT, USA).

BxPC-3 = assay: SRB cellular proliferation assay; assay type: cell-based, human; details: Homo sapiens, BxPC-3 cells, mean ± SD (n = 3), read-out: IC50
Experimental: as §3

HepG-2 = assay: SRB cellular proliferation assay; assay type: cell-based, human; details: Homo sapiens, HepG2, HepG-2 cells, mean ± SD (n = 3), read-out: IC50
Experimental: as §3

S. aureus [9] = assay: Quantification of staphyloxanthin pigment; assay type: cell-based, Staphylococcus aureus; details: sub-MIC
Experimental: Staphyloxanthin and intermediate carotenoids were extracted from S. aureus treated or untreated with compounds 5, 7 and 10 at sub-MIC as described. Bacterial cells were cultivated in TSB at 37 °C for 24 h, then cells were collected by centrifugation, and washed twice with phosphate-buffered saline (PBS). The obtained pellets were used to extract staphyloxanthin with methanol. The pellets (5 gm of) were resuspended in 20 mL methanol, and heated with gentle stirring at 55 °C in a water bath for 5 min. Then, the methanol extract liquids were cooled and centrifuged, and the absorbances of the produced staphyloxanthin were quantified spectrophotometrically at 450 nm (Biotek, Winooski, VT, USA). The experiment was repeated in triplicate, and the pigment absorbances in the presence of tested compounds were expressed as mean ± standard error of percentage change from untreated controls. The percentages of pigment production were calculated using the formula: (absorbance of control − absorbance in presence of tested compounds)/absorbance of control.

P. aeruginosa [10] = assay: Quantification of pyocyanin pigment; assay type: cell-based, Pseudomonas aeruginosa; details: sub-MIC
Experimental: The ability of selected compounds 5, 7 and 10 at sub-MIC to reduce the P. aeruginosa pyocyanin pigment production was estimated as described earlier. P. aeruginosa overnight cultures were prepared and diluted in LB broth at 600 nm (O.D0.4), and 10 μL of the bacterial suspensions were added to 1mL broth tubes containing, or not, tested drugs at sub-MIC. After incubation for 48 h at 37 °C, the tubes were centrifuged and the pyocyanin in the supernatant was assayed spectrophotometrically at 691 nm by a Biotek spectrofluorometer (Biotek, Winooski, VT, USA). The experiment was repeated in triplicate, and the pyocyanin absorbances in the presence of tested compounds were expressed as mean ± standard error of percentage change from untreated controls. The percentages of pigment production were calculated using the formula: (absorbance of control − absorbance in presence of tested compounds)/absorbance of control.

[11] = tested on: Candida albicans ATCC 10231; assay: MIC by agar dilution (antifungal); assay type: cell-based; details: Candida albicans, ATCC10231, Candida albicans ATCC 10231, read-out: Minimum inhibitory concentration (MIC)
Experimental: as §2

[12] = tested on: Aspergillus niger ATCC 16404; assay: MIC by agar dilution (antifungal); assay type: cell-based; details: ATCC16404, read-out: Minimum inhibitory concentration (MIC)
Experimental: as §2

Row | Structure (SMILES) | Production of protease (S. aureus [1]) | Production of protease (P. aeruginosa [2]) | MIC [3] [µg/mL] | MIC [4] [µg/mL] | MIC [5] [µg/mL] | MIC [6] [µg/mL] | MIC [7] [µg/mL] | MIC [8] [µg/mL] | IC50 (Panc-1) [µg/mL] | IC50 (BxPC-3) [µg/mL] | IC50 (HepG-2) [µg/mL] | Production of pigment staphyloxanthin (S. aureus [9]) | Production of pigment pyocyanin (P. aeruginosa [10]) | MIC [11] [µg/mL] | MIC [12] [µg/mL]
1 | Cc1ccc(S(=O)(=O)Nc2ccccc2C2=N/C(=C/c3ccccc3)C(=O)O2)cc1 [Compound 9a, (E)-N-(2-(4-Benzylidene-5-oxo-4,5-dihydrooxazol-2-yl)phenyl)-4-methylbenzenesulfonamide] | significantly reduced the production of protease | significantly reduced the production of protease | 4 (≈ 9.56 µM) | 4 (≈ 9.56 µM) | 2 (≈ 4.78 µM) | 4 (≈ 9.56 µM) | 4 (≈ 9.56 µM) | 4 (≈ 9.56 µM) | 11.9 ± 0.76 (≈ 28.6 µM) | 14.4 ± 0.73 (≈ 34.4 µM) | 11 ± 2.39 (≈ 26.2 µM) | significantly decreased the production | significantly decreased the production | 16 (≈ 38.2 µM) | 32 (≈ 76.5 µM)
2 | Cc1ccc(S(=O)(=O)Nc2ccccc2C2=N/C(=C/c3ccc([N+](=O)[O-])cc3)C(=O)O2)cc1 [Compound 9f, (E)-4-Methyl-N-(2-(4-(4-nitrobenzylidene)-5-oxo-4,5-dihydrooxazol-2-yl)phenyl)benzenesulfonamide] | significantly reduced the production of protease | significantly reduced the production of protease | 2 (≈ 4.32 µM) | 2 (≈ 4.32 µM) | 4 (≈ 8.63 µM) | 2 (≈ 4.32 µM) | 2 (≈ 4.32 µM) | 2 (≈ 4.32 µM) | 12.6 ± 1.2 (≈ 27.2 µM) | 14.2 ± 1.87 (≈ 30.6 µM) | 6.39 ± 1.25 (≈ 13.8 µM) | significantly decreased the production | significantly decreased the production | > 32 | > 32
3 | COc1ccc(/C=C2/N=C(c3ccccc3NS(=O)(=O)c3ccc(C)cc3)OC2=O)cc1 [Compound 9b, (E)-N-(2-(4-(4-Methoxybenzylidene)-5-oxo-4,5-dihydrooxazol-2-yl)phenyl)-4-methylbenzenesulfonamide] | significantly reduced the production of protease | significantly reduced the production of protease | 1 (≈ 2.23 µM) | 2 (≈ 4.46 µM) | 2 (≈ 4.46 µM) | 4 (≈ 8.92 µM) | 4 (≈ 8.92 µM) | 1 (≈ 2.23 µM) | 13.6 ± 1.16 (≈ 30.4 µM) | 14.9 ± 4.19 (≈ 33.2 µM) | 8.53 ± 1.1 (≈ 19 µM) | significantly decreased the production | significantly decreased the production | > 32 | > 32

Source: publication PMC8838850, “Synthesis, Antimicrobial, Anti-Virulence and Anticancer Evaluation of New 5(4H)-Oxazolone-Based Sulfonamides” (Molecules, 2022)
